Laboratory results published in patent US20060206946A1, “Method of disrupting heme transport in nematodes and of modelling and evaluating eukaryotic heme transport” (priority 2005, published 2006).

Key:
C. elegans mutant IH718 = assay: Growth of heme resistant mutant in CeHR medium; type: in vivo, Caenorhabditis elegans; design: key: + = wild type equivalent In growth; ND: No growth
Description: To further increase the stringency of our genetic screen we split the contents from each 800 μM hemin selection flasks into two flasks containing either 800 μM or 1000 μM hemin. This allowed us to use another tier of positive selection to identify mutants with greater resistance to heme toxicity. Mutants from each flask were isolated and treated as a separate entity by giving an identification number based on the Genetic Nomenclature Guidelines used for C. elegans (http://biosci.umn.edu/CGC/Nomenclature/nomenguid.htm). To eliminate EMS-induced spurious mutations that could result in false positive, the mutants were outcrossed to wild-type N2 males. After five outcrosses, which replaces ˜97% of the mutant genome, mutants that bred true were selected for further analysis. Using this procedure, we isolated 13 individual mutants that were resistant to heme toxicity. […]
Worm Culture and Growth Assays. […] Worm growth was monitored each day and an aliquot was obtained for counting by microscopy usually at days 3, 6, and 9. The worms in each well were counted twice and each growth condition was analyzed in triplicate. P values for statistical significance were calculated utilizing a one-way ANOVA with Student-Newman-Keuls multiple comparison test using GraphPad Instat version 3.01. […]

C. elegans mutant IH828 = assay: Growth of heme resistant mutant in CeHR medium; type: in vivo, Caenorhabditis elegans; conditions: in vivo
Description: (§1) To further increase the stringency of our genetic screen we split the contents from each 800 μM hemin selection flasks into two flasks containing either 800 μM or 1000 μM hemin. This allowed us to use another tier of positive selection to identify mutants with greater resistance to heme toxicity. Mutants from each flask were isolated and treated as a separate entity by giving an identification number based on the Genetic Nomenclature Guidelines used for C. elegans (http://biosci.umn.edu/CGC/Nomenclature/nomenguid.htm). To eliminate EMS-induced spurious mutations that could result in false positive, the mutants were outcrossed to wild-type N2 males. After five outcrosses, which replaces ˜97% of the mutant genome, mutants that bred true were selected for further analysis. Using this procedure, we isolated 13 individual mutants that were resistant to heme toxicity. These mutants were further characterized by analyzing Mendelian segregation ratios, X-linkage, phenotype penetrance, generation times, brood size, and their ability to grow under low hemin. […] This observation was surprising because we anticipated that high heme-resistant mutants will grow poorly under low heme. Based on the mutant's growth profile at low and high heme levels, we broadly categorized them into three phenotypic classes: class A, class B and class C (FIG. 13). These “phenoclusters” have the following growth phenotype: (a) three mutants IH728, IH938, IH731 show with robust growth under low and high (≧800 μM heme (FIG. 13B), (b) one mutant IH828 show exceptional growth under low heme, moderate growth at ≦800 μM heme, and no growth at 1000 μM hemin (FIG. 13C), and (c) six mutants IH921, IH11058, IH1068n, IH1068d, IH1048, and IH718 that show moderate growth under high heme (≦800 μM), but normal growth under low heme (FIG. 13D). By classifying these mutants into phenoclusters, we can focus our efforts on the phenotypic datasets to map the molecular networks and pathways involved in heme dependent processes. For instance, mutants in a cluster may have mutations within the same gene or in multiple genes but within the same pathway.
(§2) Worm Culture and Growth Assays. Free-living worms were cultured in CeHR axenic liquid medium (Dr. Eric Clegg, Personal Communication). […] CeHR medium was modified (henceforth called mCeHR) to eliminate all sources of exogenously added heme; basal growth medium comprised 20 μM hemin chloride (Frontier Scientific, Logan, Utah) and 150 μM of ferrous ammonium sulfate (Sigma Chemicals). Worm strains were grown in mCeHR medium under aerobic conditions in tissue culture flasks at 20° C. ˜3.7×10^6 worms were routinely obtained after 3.5 to 4 days in a T75 flask with 30 ml basal medium from an initial inoculum of −1.5×10^5 worms. For initial culturing of worms in axenic media, three generations of worms were sequentially bleached (1.1% bleach/0.55 M NaOH) to eliminate any contaminating bacterial carryover from agar plates. In all dose-response experiments, worms were growth synchronized by treating the gravid hermaphrodite worms with bleach to dissolve adult worms. The eggs, resistant to bleach, were liberated from the carcasses and extensively washed with M9 buffer followed by overnight hatching in M9 buffer to synchronize growth. By harvesting at appropriate time intervals, synchronous larval stages and adult staged worms were collected for experimental manipulations. Identical numbers of synchronized L1 larvae were inoculated into media with different heme concentrations in 12- or 24-well culture plates. Worm growth was monitored each day and an aliquot was obtained for counting by microscopy usually at days 3, 6, and 9. The worms in each well were counted twice and each growth condition was analyzed in triplicate. P values for statistical significance were calculated utilizing a one-way ANOVA with Student-Newman-Keuls multiple comparison test using GraphPad Instat version 3.01. […]

[1] = test system: C. elegans mutant IH1068 n; assay: Growth of heme resistant mutant in CeHR medium; type: in vivo, Caenorhabditis elegans; design: key to Growth 1.6 μM hemin / Growth 0.5 μM GaPP: + = wild type equivalent In growth; ND: No growth
Description: as §1, §2

[2] = test system: C. elegans mutant IH1068 d; assay: Growth of heme resistant mutant in CeHR medium; type: in vivo, Caenorhabditis elegans; design: key to Growth 1.6 μM hemin / Growth 0.5 μM GaPP: + = wild type equivalent In growth; ND: No growth
Description: as §1, §2

C. elegans mutant IH1048 = assay: Growth of heme resistant mutant in CeHR medium; type: in vivo, Caenorhabditis elegans; design: key to Growth 1.6 μM hemin / Growth 0.5 μM GaPP: + = wild type equivalent In growth; ND: No growth
Description: as §1, §2

[3] = test system: C. elegans wild-type N2 strain; assay: Worm culture and growth assay in axenic CeHR/mCeHR liquid medium; type: in vivo; design: key to Growth 1.6 μM hemin / Growth 0.5 μM GaPP: + = wild type equivalent In growth; ND: No growth
Description: (D) Biphasic response of C. elegans cultured in the presence of increasing amounts of hemin chloride (μM). Equal numbers of synchronized L1 larvae were grown in 24-well plates in mCeHR medium for 9 days and quantified (worms/μl) by microscopy. Each data point represents the mean±SD from three separate experiments performed in triplicate.
(A) Aerobic growth of C. elegans in mCeFIR medium with 20 μM hemin supplemented with either gallium protoporphyrin IX (GaPP) or gallium salts. Synchronized L1 larvae were grown for 9 days in 24-well plates and quantified (worms/μl) by microscopy. Each data point represents the mean from a single experiment, and each experiment was performed in triplicate. Inset depicts the GaPP analysis at lower concentrations for clarity.
(B) Effect of heme on the cytotoxicity of GaPP. Synchronized L1 larvae were inoculated in 24-well plates containing mCeHR medium with either 0, 2, 4, or 6 μM GaPP and increasing hemin (μM). The number of worms per μl was measured on day 9 and the data are presented as mean±SD.
FIG. 9 depicts worm utilization of heme-iron under iron deprivation. Equal numbers of synchronized L1 larvae were grown in the presence of 4, 20, and 100 μM hemin, either in basal mCeHR medium (set 1), or basal medium lacking exogenous iron (set 2), or as set 2 with 1 μM of the iron chelator ferrozine (set 3), or as set 3 with 486 μM ferrous ammonium sulfate (set 4). These values of ferrozine and iron were empirically determined by performing dose-response experiments and analyzing worm growth. The number of worms per μl was measured on day 9 and the data presented as mean±SD performed in triplicate. P<0.001 between sets 1 and 3.
To qualitatively and quantitatively determine the heme requirement of C. elegans, we assessed growth at various heme concentrations. Equal numbers of L1 larvae were inoculated in CeHR medium with either no cytochrome c and hemin, or with cytochrome c and increasing amounts of hemin (FIG. 4A). The effect of hemin became apparent within 48 hours and by 9 days, the heme-deplete worms were severely growth retarded at the L1/L2 stages. […] However, this stimulatory effect of heme was toxic to worms grown at heme concentrations >750 μM. To quantitatively assess the effect of heme on worms, we counted the number of live worms grown under different concentration of heme using DIC microscopy. […] On the basis of this association between heme and the growth and reproduction of C. elegans, we conclude that the biphasic nature of heme is likely due to the need for heme under heme-deprived conditions to perform essential metabolic functions, and the lethality of heme at high concentrations can be attributed to its cytotoxic activity.
as §2, with “manipulations.” for “manipulations. Identical numbers of synchronized L1 larvae were inoculated into media with different heme concentrations in 12- or 24-well culture plates. Worm growth was monitored each day and an aliquot was obtained for counting by microscopy usually at days 3, 6, and 9. The worms in each well were counted twice and each growth condition was analyzed in triplicate. P values for statistical significance were calculated utilizing a one-way ANOVA with Student-Newman-Keuls multiple comparison test using GraphPad Instat version 3.01.”

Structure (SMILES): C=CC1=C(C)C2=[N+]3C1=Cc1c(C)c(C=C)c4[n]1[Ga-]31[n]3c(c(C)c(CCC(=O)O)c3=CC3=[N+]1C(=C4)C(C)=C3CCC(=O)O)=C2 (centres unmarked) [GaPP, gallium protoporphyrin IX]
- Growth 0.5 μM GaPP (C. elegans mutant IH718): +
- resistance of IH828 to GaPP toxicity (C. elegans mutant IH828): extremely resistant
- Growth 0.5 μM GaPP [1]: +
- Growth 0.5 μM GaPP [2]: +
- Growth 0.5 μM GaPP (C. elegans mutant IH1048): +
- toxic effect of GaPP in the presence of increasing levels of hemin ([3]; 0, 2, 4 or 6 μM GaPP, day 9): attenuated
- toxicity rank among six non-iron metalloporphyrins tested ([3]; 4 μM hemin): most toxic heme analog
- Growth 0.5 μM GaPP ([3]; Control Wild-type (N2)): +
- sensitivity compared to hemin ([3]; F1 progeny): 3,200 fold
- GaPP concentration at which worms were growth arrested ([3]; F1 progeny of surviving P0 worms grown at lower GaPP): 0.25 µM
- toxicity relative to hemin ([3]; P0 and F1 animals): 800-3000 times
- sensitivity compared to hemin ([3]; P0 worms): 800 fold
- GaPP concentration at which worms were growth retarded ([3]; P0 worms, medium with hemin): 1 µM
- sensitivity of worms to GaPPIX compared to heme ([3]; in vivo): 30 times
